Assay results from patent publication US10227357B2, “Compounds and methods for kinase modulation, and indications therefor” (Plexxikon Inc., priority 2012, dated 2019).

How the values were obtained:
[1] = biological target: T1, c-kit kinase (Homo sapiens, UniProt P10721); assay: c-Kit biochemical assay, AlphaScreen, 10 μM ATP; conditions: c-kit biochemical inhibitory activity; read-out: Biochemical activity (IC50 μM) Kit
T1 construct: The c-kit (or kinase domain thereof) is an active kinase in AlphaScreen; poly-Histidine tag (in-house protein only) (cleaved yes); host or cells: E. coli BL21(DE3)RIL, co-expressed with PTP1B
T1 sequence (P10721 26-976): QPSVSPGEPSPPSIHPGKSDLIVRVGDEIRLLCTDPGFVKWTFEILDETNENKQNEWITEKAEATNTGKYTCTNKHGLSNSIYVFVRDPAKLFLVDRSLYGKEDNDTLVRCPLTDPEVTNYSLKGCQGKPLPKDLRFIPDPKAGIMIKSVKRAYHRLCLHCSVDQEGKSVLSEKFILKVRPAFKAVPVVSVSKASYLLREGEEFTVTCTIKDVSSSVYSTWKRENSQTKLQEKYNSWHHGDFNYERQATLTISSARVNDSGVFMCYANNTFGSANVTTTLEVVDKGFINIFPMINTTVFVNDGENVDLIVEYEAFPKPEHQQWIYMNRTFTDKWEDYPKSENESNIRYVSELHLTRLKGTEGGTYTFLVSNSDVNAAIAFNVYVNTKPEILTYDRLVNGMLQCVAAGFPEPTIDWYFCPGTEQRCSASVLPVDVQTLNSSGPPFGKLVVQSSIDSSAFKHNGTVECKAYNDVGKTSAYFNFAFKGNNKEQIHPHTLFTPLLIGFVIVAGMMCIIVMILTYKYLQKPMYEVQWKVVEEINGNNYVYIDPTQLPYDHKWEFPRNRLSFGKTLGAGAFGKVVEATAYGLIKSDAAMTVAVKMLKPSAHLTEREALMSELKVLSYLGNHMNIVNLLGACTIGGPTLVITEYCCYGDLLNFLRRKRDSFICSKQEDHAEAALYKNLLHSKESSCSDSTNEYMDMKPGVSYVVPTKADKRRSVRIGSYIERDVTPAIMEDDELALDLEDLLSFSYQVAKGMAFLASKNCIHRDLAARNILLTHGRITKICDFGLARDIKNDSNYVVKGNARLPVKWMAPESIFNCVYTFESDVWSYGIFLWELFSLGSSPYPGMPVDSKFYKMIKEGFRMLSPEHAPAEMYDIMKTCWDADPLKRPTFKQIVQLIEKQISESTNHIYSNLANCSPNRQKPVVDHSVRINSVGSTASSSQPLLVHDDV
Summary of the method: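 His-tagged c-Kit expressed in E. coli with co-expressed PTP1B (dephosphorylated), tag removed; 0.1 ng per reaction with biotinylated-peptide substrate in 50 mM HEPES pH 7.2, 5 mM MgCl2, 5 mM MnCl2, 5% DMSO, 10 μM ATP, 1 h at room temperature. Phosphorylation detected by AlphaScreen (streptavidin donor, PY20 acceptor beads); IC50 from 8-point 1:3 dilution series.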

[2] = biological target: T2, c-kit mutant D816V (Homo sapiens, UniProt P10721, D816V/DEL694-753); assay: c-Kit mutant D816V biochemical assay, AlphaScreen; conditions: c-kit D816V biochemical inhibitory activity; read-out: Biochemical activity (IC50 μM) Kit D816V
T2 construct: residues 551-934, kinase insertion domain residues 694-753 deleted; 6x-histidine (N); made in house; host or cells: E. coli Arctic Express (DE3) RIL (Stratagene)
T2 sequence (P10721 with tags, fused parts or gaps DEL694-753/D816V): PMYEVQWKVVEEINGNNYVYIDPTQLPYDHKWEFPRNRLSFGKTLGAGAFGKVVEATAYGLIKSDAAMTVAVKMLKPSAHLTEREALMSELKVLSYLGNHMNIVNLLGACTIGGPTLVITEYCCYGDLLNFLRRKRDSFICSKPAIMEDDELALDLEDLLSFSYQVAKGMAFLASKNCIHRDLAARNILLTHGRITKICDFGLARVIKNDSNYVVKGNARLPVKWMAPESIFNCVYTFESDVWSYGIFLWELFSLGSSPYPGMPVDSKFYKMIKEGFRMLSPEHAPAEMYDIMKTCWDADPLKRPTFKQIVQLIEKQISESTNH
Summary of the method: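 Purified His-tagged c-Kit D816V (E. coli-expressed) assayed in 25 mM HEPES pH 7.2 with Mg/Mn, 5% DMSO and 10 μM ATP, 30 min at room temperature, 8-point 1:3 dilutions. Phosphorylation detected by AlphaScreen with streptavidin donor and PY20 acceptor beads; IC50 from signal versus concentration.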

SMILES	IC50 [1] [µM]	IC50 [2] [µM]
Cc1cc2c(-c3ccc(NS(=O)(=O)c4ccc(Cl)cc4)cc3F)ncnc2[nH]1 [P-0349, 4-chloro-N-[3-fluoro-4-(6-methyl-7H-pyrrolo[2,3-d]pyrimidin-4-yl)phenyl]benzenesulfonamide]	1 to 10	1 to 10
COc1cc(-c2cc3c(C4=CCC(NS(=O)(=O)c5ccc(OC(F)(F)F)cc5)CC4)ncnc3[nH]2)ccn1 (stereo not shown) [P-0654, N-[4-[6-(2-methoxy-4-pyridyl)-7H-pyrrolo[2,3-d]pyrimidin-4-yl]cyclohex-3-en-1-yl]-4-(trifluoromethoxy)benzenesulfonamide]	10 to 200	0.0001 to 1
Cc1nn(C)cc1-c1cc2c(N3CCN(C(=O)N[C@@H](C)c4ccc(F)cc4)CC3)ncnc2[nH]1 [P-0724, 4-[6-(1,3-dimethylpyrazol-4-yl)-7H-pyrrolo[2,3-d]pyrimidin-4-yl]-N-[(1S)-1-(4-fluorophenyl)ethyl]piperazine-1-carboxamide]	0.0001 to 1	0.0001 to 1
O=S(=O)(Nc1ccc(-c2ncnc3[nH]c(C4CCCC4)cc23)cc1)c1ccc(F)cc1 [P-0290, N-[4-(6-cyclopentyl-7H-pyrrolo[2,3-d]pyrimidin-4-yl)phenyl]-4-fluoro-benzenesulfonamide]	1 to 10	0.0001 to 1
CCCS(=O)(=O)Nc1ccc(-c2ncnc3[nH]c(-c4ccc(F)cc4)cc23)c(F)c1 [P-0397, N-[3-fluoro-4-[6-(4-fluorophenyl)-7H-pyrrolo[2,3-d]pyrimidin-4-yl]phenyl]propane-1-sulfonamide]	1 to 10	0.0001 to 1
COc1cc2ncnc(-c3ccc(NS(=O)(=O)c4ccc(Cl)cc4)cc3F)c2cc1OC [P-0268, 4-chloro-N-[4-(6,7-dimethoxyquinazolin-4-yl)-3-fluoro-phenyl]benzenesulfonamide]	1 to 10	0.0001 to 1
Cn1cc(-c2cc3c(N4CCC(NS(=O)(=O)c5ccc6c(c5)CCC6)CC4)ncnc3[nH]2)cn1 [P-0452, N-[1-[6-(1-methylpyrazol-4-yl)-7H-pyrrolo[2,3-d]pyrimidin-4-yl]-4-piperidyl]indane-5-sulfonamide]	1 to 10	0.0001 to 1
O=C(NCc1cncc(F)c1)N1CCN(c2ncnc3[nH]c(-c4ccc(F)cc4)cc23)CC1 [P-0131, 4-[6-(4-fluorophenyl)-7H-pyrrolo[2,3-d]pyrimidin-4-yl]-N-[(5-fluoro-3-pyridyl)methyl]piperazine-1-carboxamide]	1 to 10	1 to 10
COc1cccc([C@H](C)NC(=O)N2CCN(c3ncnc4[nH]c(-c5ccc(Cl)cc5)cc34)C[C@H]2C)c1 [P-0024, (2R)-4-[6-(4-chlorophenyl)-7H-pyrrolo[2,3-d]pyrimidin-4-yl]-N-[(1S)-1-(3-methoxyphenyl)ethyl]-2-methyl-piperazine-1-carboxamide]	1 to 10	0.0001 to 1
Cc1cc2c(-c3ccc(NS(=O)(=O)c4cccc(Cl)c4)cc3F)ncnc2[nH]1 [P-0357, 3-chloro-N-[3-fluoro-4-(6-methyl-7H-pyrrolo[2,3-d]pyrimidin-4-yl)phenyl]benzenesulfonamide]	1 to 10	1 to 10
CC1(C)C=C(c2cc3c(-c4ccc(NS(=O)(=O)c5ccc(F)cc5)cc4)ncnc3[nH]2)CC(C)(C)N1 [P-0295, 4-fluoro-N-[4-[6-(2,2,6,6-tetramethyl-1,3-dihydropyridin-4-yl)-7H-pyrrolo[2,3-d]pyrimidin-4-yl]phenyl]benzenesulfonamide]	1 to 10	0.0001 to 1
C[C@@H]1CN(c2ncnc3[nH]c(-c4ccncc4)cc23)CCN1C(=O)Nc1ccc(OC(F)(F)F)cc1 [P-0063, (2R)-2-methyl-4-[6-(4-pyridyl)-7H-pyrrolo[2,3-d]pyrimidin-4-yl]-N-[4-(trifluoromethoxy)phenyl]piperazine-1-carboxamide]	0.0001 to 1	0.0001 to 1
Cc1cc2c(N3CCN(C(=O)N[C@@H](C)c4ccc(F)cc4)[C@H](C)C3)ncnc2[nH]1 [P-0646, (2R)-N-[(1S)-1-(4-fluorophenyl)ethyl]-2-methyl-4-(6-methyl-7H-pyrrolo[2,3-d]pyrimidin-4-yl)piperazine-1-carboxamide]	10 to 200	1 to 10
Cc1cc2c(-c3ccc(NS(=O)(=O)c4cccc(OC(F)(F)F)c4)cc3)ncnc2[nH]1 [P-0284, N-[4-(6-methyl-7H-pyrrolo[2,3-d]pyrimidin-4-yl)phenyl]-3-(trifluoromethoxy)benzenesulfonamide]	10 to 200	1 to 10
CS(=O)(=O)Nc1ccc(-c2cc3c(-c4ccc(NS(C)(=O)=O)cc4F)ncnc3[nH]2)c(F)c1 [P-0382, N-[3-fluoro-4-[4-[2-fluoro-4-(methanesulfonamido)phenyl]-7H-pyrrolo[2,3-d]pyrimidin-6-yl]phenyl]methanesulfonamide]	0.0001 to 1	0.0001 to 1
NC(=O)c1cccc(-c2cc3c(N4CCN(C(=O)NCc5ccc(F)cc5)CC4)ncnc3[nH]2)c1 [P-0108, 4-[6-(3-carbamoylphenyl)-7H-pyrrolo[2,3-d]pyrimidin-4-yl]-N-[(4-fluorophenyl)methyl]piperazine-1-carboxamide]	1 to 10	0.0001 to 1
C[C@@H]1CN(c2ncnc3[nH]c(-c4ccncc4)cc23)CCN1C(=O)Nc1ccc(F)c(Cl)c1 [P-0062, (2R)-N-(3-chloro-4-fluoro-phenyl)-2-methyl-4-[6-(4-pyridyl)-7H-pyrrolo[2,3-d]pyrimidin-4-yl]piperazine-1-carboxamide]	1 to 10	0.0001 to 1
Cc1cc2c(-c3ccc(NS(=O)(=O)c4cccc(Cl)c4)c(F)c3)ncnc2[nH]1 [P-0345, 3-chloro-N-[2-fluoro-4-(6-methyl-7H-pyrrolo[2,3-d]pyrimidin-4-yl)phenyl]benzenesulfonamide]	1 to 10	1 to 10
O=C(Nc1ccc(OC(F)(F)F)cc1)N1CCN(c2ncnc3[nH]c(-c4cnc(C5CC5)nc4)cc23)CC1 [P-0112, 4-[6-(2-cyclopropylpyrimidin-5-yl)-7H-pyrrolo[2,3-d]pyrimidin-4-yl]-N-[4-(trifluoromethoxy)phenyl]piperazine-1-carboxamide]	1 to 10	10 to 200
COc1cccc([C@H](C)NC(=O)N2CC=C(c3ncnc4cc(-c5cn(C)nc5C)sc34)CC2)c1 [P-0582, 4-[6-(1,3-dimethylpyrazol-4-yl)thieno[3,2-d]pyrimidin-4-yl]-N-[(1S)-1-(3-methoxyphenyl)ethyl]-3,6-dihydro-2H-pyridine-1-carboxamide]	1 to 10	0.0001 to 1
CCCCS(=O)(=O)Nc1ccc(-c2cc3c(-c4ccc(NS(=O)(=O)CCCC)cc4)ncnc3[nH]2)cc1 [P-0388, N-[4-[4-[4-(butylsulfonylamino)phenyl]-7H-pyrrolo[2,3-d]pyrimidin-6-yl]phenyl]butane-1-sulfonamide]	10 to 200	0.0001 to 1
CS(=O)(=O)Nc1ccc(-c2ncnc3[nH]c(-c4ccc(F)cc4)cc23)cc1F [P-0399, N-[2-fluoro-4-[6-(4-fluorophenyl)-7H-pyrrolo[2,3-d]pyrimidin-4-yl]phenyl]methanesulfonamide]	0.0001 to 1	0.0001 to 1
Cc1cc2c(N3CCN(C(=O)N[C@@H](C)c4cccc(F)c4)[C@H](C)C3)ncnc2[nH]1 [P-0684, (2R)-N-[(1S)-1-(3-fluorophenyl)ethyl]-2-methyl-4-(6-methyl-7H-pyrrolo[2,3-d]pyrimidin-4-yl)piperazine-1-carboxamide]	10 to 200	0.0001 to 1
C[C@H](NC(=O)N1CCN(c2ncnc3[nH]c(-c4ccc(Cl)cc4)cc23)C[C@H]1C)c1ccc(F)cc1 [P-0023, (2R)-4-[6-(4-chlorophenyl)-7H-pyrrolo[2,3-d]pyrimidin-4-yl]-N-[(1S)-1-(4-fluorophenyl)ethyl]-2-methyl-piperazine-1-carboxamide]	10 to 200	0.0001 to 1
Cc1nn(C)cc1-c1cc2ncnc(C3=CCN(C(=O)Nc4ccc(Cl)cc4)CC3)c2s1 [P-0612, N-(4-chlorophenyl)-4-[6-(1,3-dimethylpyrazol-4-yl)thieno[3,2-d]pyrimidin-4-yl]-3,6-dihydro-2H-pyridine-1-carboxamide]	0.0001 to 1	0.0001 to 1
C[C@H](NC(=O)N1CCN(c2ncnc3[nH]c(-c4cnn(C)c4)cc23)CC1(C)C)c1ccc(Cl)cc1 [P-0722, N-[(1S)-1-(4-chlorophenyl)ethyl]-2,2-dimethyl-4-[6-(1-methylpyrazol-4-yl)-7H-pyrrolo[2,3-d]pyrimidin-4-yl]piperazine-1-carboxamide]	0.0001 to 1	0.0001 to 1
CS(=O)(=O)Nc1ccc(-c2ncnc3cc4c(cc23)OCCO4)c(F)c1 [P-0266, N-[4-(7,8-dihydro-[1,4]dioxino[2,3-g]quinazolin-4-yl)-3-fluoro-phenyl]methanesulfonamide]	1 to 10	1 to 10
CCCc1ccc(S(=O)(=O)Nc2ccc(-c3ncnc4[nH]c(C)cc34)cc2)cc1 [P-0282, N-[4-(6-methyl-7H-pyrrolo[2,3-d]pyrimidin-4-yl)phenyl]-4-propyl-benzenesulfonamide]	1 to 10	0.0001 to 1
COc1cc2c(-c3ccc(NS(=O)(=O)C4CC4)cc3F)ncnc2cc1OCCCN1CCCCC1 [P-0257, N-[3-fluoro-4-[6-methoxy-7-[3-(1-piperidyl)propoxy]quinazolin-4-yl]phenyl]cyclopropanesulfonamide]	1 to 10	0.0001 to 1
